One series concerns the target Cytochrome P450 2C19 (Homo sapiens, UniProt P33261). Description: Cytochrome panel assay with activity outcomes. Panel member name: p450-cyp2c19 Compounds with AC50 equal or less than 10 uM are considered active. The class given is functional. To be noted: read-out: AC50.
The target of a further series is Cytochrome P450 2D6 (Homo sapiens, UniProt P10635).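 Further: CYP2D6 member of a cytochrome P450 panel assay.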
Another series deals with Cytochrome P450 2C9 (Homo sapiens, UniProt P11712).
The subject of series [1] is HEK293. The series is described as follows: cells. The series is classed as functional, cell-based. The conditions noted are these: Homo sapiens.
Series [2] has as its target T1, Nuclear receptor subfamily 0 group B member 1 (Homo sapiens, UniProt P51843).
T1 sequence (P51843 whole entry): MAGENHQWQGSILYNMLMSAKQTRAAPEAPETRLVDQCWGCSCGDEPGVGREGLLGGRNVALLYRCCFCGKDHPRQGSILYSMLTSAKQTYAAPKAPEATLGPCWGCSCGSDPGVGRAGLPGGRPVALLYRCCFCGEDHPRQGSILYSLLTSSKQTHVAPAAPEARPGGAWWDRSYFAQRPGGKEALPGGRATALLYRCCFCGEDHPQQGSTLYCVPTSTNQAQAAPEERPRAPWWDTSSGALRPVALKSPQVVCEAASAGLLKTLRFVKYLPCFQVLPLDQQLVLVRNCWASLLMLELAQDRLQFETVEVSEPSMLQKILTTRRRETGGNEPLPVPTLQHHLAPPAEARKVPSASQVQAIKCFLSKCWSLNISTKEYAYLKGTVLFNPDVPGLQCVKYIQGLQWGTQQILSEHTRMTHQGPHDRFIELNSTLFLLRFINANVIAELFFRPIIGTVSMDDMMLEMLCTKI
Description: Luminescence-based cell-based high throughput dose response assay for inhibitors of the orphan nuclear receptor subfamily 0, group B, member 1 (DAX1; NR0B1). [Related pubchem assays (depositor defined):AID504766, AID504790]. The series is classed as functional.

The subject of series [3] is HEK293. Description: cells. The conditions noted are these: Homo sapiens. The series is classed as functional, cell-based. This is another data set of the same source.
The target in another series is Tumor necrosis factor (Homo sapiens, UniProt P01375). Description: analog potency on TNFa NF-kB signaling – cell-based, revised, SAR follow-up (AID 2337). The class given is functional.
The test system of series [4] is HEK293. Description: inhibition of NOD1-driven NF-kB reporter – cell-based, luminescence, uHTS, primary screen (AID 1578). To be noted: Homo sapiens. The class given is functional.
The next series concerns INS1. Description: INS-1E survival protection against cytokine death – cell-based, luminescence, retest, dose response (AID 449756).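 Further: cell death triggered by IL-1 beta plus TNF-alpha plus IFN-gamma mixture; protective hits raise ATP signal compared with cytokine alone wells.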 The series is classed as functional. The conditions noted are these: Rattus norvegicus.
The test system of series [5] is HEK293. The series is described as follows: NOD2 signaling inhibitors in MDP-stimulated cells, cell-based, uHTS, luminescence (AID 2001). The series is classed as functional. The conditions noted are these: Homo sapiens.
The target in series [6] is T2, Nucleotide-binding oligomerization domain-containing protein 1 (Homo sapiens, UniProt Q9Y239).
T2 sequence (Q9Y239 whole entry): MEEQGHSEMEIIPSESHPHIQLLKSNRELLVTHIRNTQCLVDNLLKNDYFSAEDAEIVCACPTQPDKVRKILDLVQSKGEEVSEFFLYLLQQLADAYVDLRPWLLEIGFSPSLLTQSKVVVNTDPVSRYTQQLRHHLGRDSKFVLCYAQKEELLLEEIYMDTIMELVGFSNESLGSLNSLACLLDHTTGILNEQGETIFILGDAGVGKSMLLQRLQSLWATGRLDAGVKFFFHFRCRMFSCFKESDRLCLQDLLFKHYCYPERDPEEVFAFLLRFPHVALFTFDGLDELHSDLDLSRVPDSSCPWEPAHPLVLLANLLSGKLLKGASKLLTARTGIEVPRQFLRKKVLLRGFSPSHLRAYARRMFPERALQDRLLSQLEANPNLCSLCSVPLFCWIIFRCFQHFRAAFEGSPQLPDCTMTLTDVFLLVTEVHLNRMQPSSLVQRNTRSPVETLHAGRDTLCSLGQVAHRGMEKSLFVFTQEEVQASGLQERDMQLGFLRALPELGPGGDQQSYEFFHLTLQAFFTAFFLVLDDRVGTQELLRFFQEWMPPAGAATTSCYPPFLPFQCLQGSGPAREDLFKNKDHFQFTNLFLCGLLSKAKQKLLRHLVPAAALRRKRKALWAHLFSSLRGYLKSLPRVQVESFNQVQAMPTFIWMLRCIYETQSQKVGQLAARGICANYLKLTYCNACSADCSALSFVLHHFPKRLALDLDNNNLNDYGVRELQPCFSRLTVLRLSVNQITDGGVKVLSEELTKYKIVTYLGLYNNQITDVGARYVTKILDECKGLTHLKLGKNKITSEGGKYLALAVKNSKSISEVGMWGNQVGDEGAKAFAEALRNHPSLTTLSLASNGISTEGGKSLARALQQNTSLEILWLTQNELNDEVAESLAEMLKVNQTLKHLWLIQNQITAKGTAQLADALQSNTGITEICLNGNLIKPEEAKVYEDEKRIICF
Description: blockers of NOD1 pathway activity – revised, SAR follow-up (AID 2333). The class given is functional.

Series [7] deals with HEK293. The series is described as follows: cells. The class given is functional, cell-based. The conditions noted are these: Homo sapiens. This is another data set of the same source.
For series [8], the system named is HEK293. The series is described as follows: cells. The conditions noted are these: Homo sapiens.
Series [9] has as its target T3, Microphthalmia-associated transcription factor (Homo sapiens, UniProt O75030).
T3 sequence (O75030 whole entry): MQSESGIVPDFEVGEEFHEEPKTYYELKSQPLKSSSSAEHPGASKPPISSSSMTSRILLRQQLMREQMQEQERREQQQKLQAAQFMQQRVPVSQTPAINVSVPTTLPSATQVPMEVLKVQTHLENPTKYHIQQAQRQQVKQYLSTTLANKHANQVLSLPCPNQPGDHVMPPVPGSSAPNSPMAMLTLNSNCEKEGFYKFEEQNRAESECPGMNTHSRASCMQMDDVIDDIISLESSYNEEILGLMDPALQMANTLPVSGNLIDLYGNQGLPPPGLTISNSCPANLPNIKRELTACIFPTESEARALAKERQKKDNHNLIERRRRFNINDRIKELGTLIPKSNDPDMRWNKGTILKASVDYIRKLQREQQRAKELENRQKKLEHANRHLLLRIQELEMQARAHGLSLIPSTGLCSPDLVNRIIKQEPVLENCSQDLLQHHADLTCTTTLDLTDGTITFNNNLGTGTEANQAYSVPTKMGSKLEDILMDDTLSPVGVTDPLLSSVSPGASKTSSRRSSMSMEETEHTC
The series is described as follows: reducers of TRPM1 reporter luminescence, concentration series – cell-based, SK-MEL-5, cherry-picked, set 3, MITF inhibitor project, dose response (AID 493073).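 Further: SK-MEL-5 melanoma cells with luciferase driven by the MITF target TRPM1 promoter.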 The class given is functional.

Series [10] in a line: HIV-1 Vif–A3G interaction blockers – biochemical, TR-FRET, GST-Vif 1-94, biotin-A3G peptide, dose response retest, primary screen (AID 1117319).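 Further: TR-FRET signal of purified GST-Vif binding a biotinylated A3G peptide; inhibitors lower the FRET signal by blocking Vif and A3G binding.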 The series is classed as functional.
Series [11] concerns the target Heat shock protein HSP 90-alpha (Homo sapiens, UniProt P07900). The series is classed as functional, organism-based.
A further series has as its target Genome polyprotein (dengue virus type 2, UniProt P29990). The series is described as follows: flavivirus cap methylation enzyme inhibition – biochemical, confirmation dose response, primary screen (AID 588689). The series is classed as functional.

Each structure is given as a SMILES string. Active and inactive are the calls of the source.

Chain of Cytochrome P450 2D6 (P10635 whole entry): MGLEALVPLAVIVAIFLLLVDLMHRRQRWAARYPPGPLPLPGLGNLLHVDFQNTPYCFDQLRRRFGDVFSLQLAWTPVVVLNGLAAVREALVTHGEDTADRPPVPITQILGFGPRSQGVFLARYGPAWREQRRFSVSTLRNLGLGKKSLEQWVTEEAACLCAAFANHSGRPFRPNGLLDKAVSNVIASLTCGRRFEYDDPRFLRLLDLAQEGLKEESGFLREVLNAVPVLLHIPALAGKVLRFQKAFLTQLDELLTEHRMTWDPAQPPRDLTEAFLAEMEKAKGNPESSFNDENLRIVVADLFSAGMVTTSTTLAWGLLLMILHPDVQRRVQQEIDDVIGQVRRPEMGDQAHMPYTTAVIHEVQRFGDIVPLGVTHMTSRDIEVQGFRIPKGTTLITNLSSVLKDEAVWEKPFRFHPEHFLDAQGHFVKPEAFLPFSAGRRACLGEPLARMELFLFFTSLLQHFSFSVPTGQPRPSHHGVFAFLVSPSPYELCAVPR
Chain of Genome polyprotein (P29990 2492-3391 limits assumed): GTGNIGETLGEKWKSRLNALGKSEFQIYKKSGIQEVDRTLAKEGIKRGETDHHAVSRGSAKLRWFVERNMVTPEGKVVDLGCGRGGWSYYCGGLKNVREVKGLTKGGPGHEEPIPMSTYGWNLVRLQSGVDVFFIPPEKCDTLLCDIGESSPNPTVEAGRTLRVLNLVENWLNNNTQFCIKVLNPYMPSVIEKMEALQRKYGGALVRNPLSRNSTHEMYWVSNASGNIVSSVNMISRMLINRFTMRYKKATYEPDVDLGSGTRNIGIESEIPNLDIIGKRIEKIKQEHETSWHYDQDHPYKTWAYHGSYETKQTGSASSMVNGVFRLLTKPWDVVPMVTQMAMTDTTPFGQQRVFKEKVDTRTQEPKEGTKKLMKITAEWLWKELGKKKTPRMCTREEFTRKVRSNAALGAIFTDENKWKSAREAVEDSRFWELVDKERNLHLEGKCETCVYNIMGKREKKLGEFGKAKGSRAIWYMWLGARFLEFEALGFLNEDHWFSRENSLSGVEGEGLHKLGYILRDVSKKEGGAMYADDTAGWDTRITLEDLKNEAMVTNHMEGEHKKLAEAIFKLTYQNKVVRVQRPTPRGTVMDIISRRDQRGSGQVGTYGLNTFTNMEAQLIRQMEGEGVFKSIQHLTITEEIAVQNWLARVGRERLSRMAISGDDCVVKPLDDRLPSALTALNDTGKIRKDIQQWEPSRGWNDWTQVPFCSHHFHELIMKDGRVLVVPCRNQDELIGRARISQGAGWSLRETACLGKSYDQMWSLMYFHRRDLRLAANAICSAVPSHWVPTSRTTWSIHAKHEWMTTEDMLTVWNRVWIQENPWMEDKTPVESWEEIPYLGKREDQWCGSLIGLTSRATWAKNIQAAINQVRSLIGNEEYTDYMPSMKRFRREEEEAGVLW
Chain of Cytochrome P450 2C19 (P33261 whole entry): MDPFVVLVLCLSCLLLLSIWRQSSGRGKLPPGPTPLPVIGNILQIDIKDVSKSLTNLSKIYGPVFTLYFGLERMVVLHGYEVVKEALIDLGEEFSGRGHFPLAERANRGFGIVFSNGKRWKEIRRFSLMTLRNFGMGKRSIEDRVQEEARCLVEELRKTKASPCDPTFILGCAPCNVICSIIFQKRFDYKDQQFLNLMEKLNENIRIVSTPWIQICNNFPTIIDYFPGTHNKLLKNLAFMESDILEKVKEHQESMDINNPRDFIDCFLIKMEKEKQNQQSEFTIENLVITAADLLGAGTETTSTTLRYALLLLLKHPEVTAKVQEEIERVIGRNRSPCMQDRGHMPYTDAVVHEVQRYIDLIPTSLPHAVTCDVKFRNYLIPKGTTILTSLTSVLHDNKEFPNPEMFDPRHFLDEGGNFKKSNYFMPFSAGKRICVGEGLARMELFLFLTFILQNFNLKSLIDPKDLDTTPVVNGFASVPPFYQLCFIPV
Chain of Tumor necrosis factor (P01375 whole entry): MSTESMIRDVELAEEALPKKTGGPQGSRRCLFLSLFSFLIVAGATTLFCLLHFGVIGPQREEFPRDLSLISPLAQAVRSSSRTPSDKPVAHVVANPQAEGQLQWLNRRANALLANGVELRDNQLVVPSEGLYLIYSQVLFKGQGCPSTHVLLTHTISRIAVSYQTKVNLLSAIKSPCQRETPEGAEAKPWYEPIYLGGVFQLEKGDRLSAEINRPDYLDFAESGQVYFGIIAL
Chain of Cytochrome P450 2C9 (P11712 whole entry): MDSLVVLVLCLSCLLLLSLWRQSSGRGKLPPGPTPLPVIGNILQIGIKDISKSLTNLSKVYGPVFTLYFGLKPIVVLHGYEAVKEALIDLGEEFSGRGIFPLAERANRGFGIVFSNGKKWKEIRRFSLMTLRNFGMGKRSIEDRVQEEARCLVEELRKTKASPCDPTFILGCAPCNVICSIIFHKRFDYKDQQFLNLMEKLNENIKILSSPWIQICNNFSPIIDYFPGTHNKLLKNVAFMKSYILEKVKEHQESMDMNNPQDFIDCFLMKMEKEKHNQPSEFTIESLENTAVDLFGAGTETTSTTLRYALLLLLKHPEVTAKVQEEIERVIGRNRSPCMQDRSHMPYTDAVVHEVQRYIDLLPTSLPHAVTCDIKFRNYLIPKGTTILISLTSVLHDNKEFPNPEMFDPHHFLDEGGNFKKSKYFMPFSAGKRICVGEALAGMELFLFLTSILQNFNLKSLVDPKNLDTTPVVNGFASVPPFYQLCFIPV

As usually defined, the AC50 is the concentration giving half of the maximal activity seen. In the case of `Fc1nc(N2CCCC2)c(F)c(Oc2ccccc2Oc2c(F)c(F)nc(N3CCCC3)c2F)c1F`, the AC50 at Cytochrome P450 2C19 was 5.62 µM (inconclusive); at Cytochrome P450 2D6, “inconclusive”; at Cytochrome P450 2C9, 1 µM (inconclusive).
In general, IC50 refers to the concentration needed to halve the response being measured. On to `CCOc1ccc(-c2nnc(-c3ccco3)o2)cc1OCC`, for which the IC50 (in the series on HEK293 [1]; in series [2]) was > 67.5 µM (inactive) throughout.
By EC50 is commonly meant the midpoint of the concentration-response curve. On to `CN(C)S(=O)(=O)c1cccc(CSCc2cccc(S(=O)(=O)N(C)C)c2)c1`, for which the IC50 is > 20 µM (inactive) in the series with HEK293 [3]; 2.09 µM (active) at Tumor necrosis factor; 5 µM (active) with HEK293 [5]; 2.12 µM (active) in [6]; 3.06 µM (active) in the series with HEK293 [7]; > 20 µM (inactive) in the series on HEK293 [8]. Besides, the concentration for a half-maximal effect (EC50) with HEK293 [4] is 1.3 µM (active). The concentration at half-maximal activity (AC50) with INS1 is 3.3 µM (active).
Regarding `CCN1CCc2c(sc(NC(=O)c3ccc(S(=O)(=O)N4CCCC4)cc3)c2C(=O)NC)C1`, the concentration at half-maximal activity (AC50) in [9] is 9.14 µM (active).
In the case of `COc1ccc(NC(=O)C2CCCN2S(=O)(=O)c2cccc3cccnc23)c(OC)c1` (configuration not stated), in series [10], the concentration for half-maximal inhibition (IC50) was > 100 µM (active). The AC50 in series [11] was 1.49 µM (active).
Take `CCOC(=O)CSc1nnc(NC(=O)c2cccc(S(=O)(=O)N3CCCCCC3)c2)s1`: the AC50 on Cytochrome P450 2C19 is 2 µM (inconclusive); on Cytochrome P450 2D6 it was “inconclusive”.
For `Cc1ccc(/C=C2\SC(=S)N(NS(=O)(=O)c3ccc(C)cc3)C2=O)cc1`, the IC50 on Genome polyprotein is 25.9 µM (active).
As to `Nc1cccc(Oc2c(F)c(F)c(Oc3cccc(N)c3)c(F)c2F)c1`, in [11], the half-maximal activity concentration (AC50) is 7.55 µM (active).
As for `CCCCN=C(S)NNC(=O)c1sccc1C`, on Cytochrome P450 2D6, the half-maximal activity concentration (AC50) entry is reported as “inconclusive”.
Regarding `CC(C)Nc1c([N+](=O)[O-])nn(C)[n+]1[O-]`, in [9], the half-maximal activity concentration (AC50) was 299 µM (active).
As for `CCn1nc(C)cc1C(=O)NC1CCCc2c1cnn2-c1ccc(C)c(C)c1` (configuration not stated), the figures for the IC50 (at Tumor necrosis factor; in series [6]; with HEK293 [8]) were 4.43 µM (active), 4.76 µM (active) and > 20 µM (inactive), respectively.
For `N=C(Cc1ccc(Cl)cc1Cl)NOC(=O)c1cccs1`, the AC50 in series [11] is 3.59 µM (active).
Take `COCCn1c(C)cc(C(=O)CSc2nnc(C)s2)c1C`: in series [9], the AC50 is 3.04 µM (active).
Take `COc1ccc(C(=O)Nc2ccc(NC(=O)c3ccco3)c(Cl)c2)cc1OC`: on Cytochrome P450 2D6, the AC50 entry was “inconclusive”.
As for `O=C1C(=NO)CCc2ccccc21`, at Genome polyprotein, the concentration for half-maximal inhibition (IC50) was 88.6 µM (active).
With `Cc1ccc(OCC(=O)NC(=S)Nc2cccc(C)n2)cc1`, the IC50 (in the series on HEK293 [1]; in [2]) was > 67.5 µM (inactive) each time.
Turning to `NCCCCC(=O)O` [5-AMINOVALERIC ACID], the AC50 entry at Cytochrome P450 2D6 was “inconclusive”.

The values above are taken from ChEMBL document CHEMBL1201862, “PubChem BioAssay data set” (2004).
